Laboratory results taken from US20250249025A1, “DRUG DELIVERY CARRIER UTILIZING PROPERTY OF D-ALLOSE BEING UPTAKEN BY CANCER CELL, DRUG DELIVERY METHOD, AND COMPOSITION FOR TREATING RENAL CELL CARCINOMA” (NATIONAL UNIVERSITY CORPORATION KAGAWA UNIVERSITY, priority 2019, published 2025).

Key:
[1] = system: human renal cell carcinoma cell line Caki-I; test: Rare sugar uptake experiment, sugar content in disrupted cell suspension of Caki-I; assay type: cell-based
Method: An uptake amount of a rare sugar, which had been added to a medium, into carcinoma cells was analyzed using the cell lines of three types of cancers. As the rare sugar, four kinds, that is, D-allose, D-allulose (D-psicose), L-allulose (L-psicose), and allitol were used, while D-glucose and fructose were used as a monosaccharide which was not a rare sugar.
Cells of each of the cell lines were cultured in RPMI-1640 media and during culturing, six sugars were each added to the resulting media and cultured. After culturing, an amount of each sugar taken up into the cells was analyzed. The medium to which no sugar was added during culturing was used as a control.
Used were human bladder carcinoma cell lines (RT112, 253), and J82), human prostatic carcinoma cell lines (LNCa, Du145, and PC-3), and human renal cell carcinoma cell lines (ACHN, Caki-I, and Caki-II).
After cells were cultured in RPMI-1640 (2000 mg D-glucose/L) media, the above monosaccharides and rare sugars were added to the resulting media, respectively. Described specifically, they were following seven combinations: RPMI-1640 alone (control), RPMI-1640+D-glucose, RPMI-1640+L-allulose, RPMI-1640+D-allulose, RPMI-1640+D-fructose, RPMI-1640+D-allose, and RPMI-1640+D-allitol. The final concentration of the sugar in the medium was adjusted to 10 mM and no sugar was added in the control.
Five-ml portions of a 3.0×10^4 cells/ml cell suspension prepared using RPMI-1640 were seeded in dishes having a diameter of 6 cm (1.5×10^5 cells/dish) and cultured for 24 hours in the RPMI-1640 medium containing 2000 mg/l of D-glucose as a nutrient source. Twenty-four hours later, the media were changed to the culture solutions containing the monosaccharides and rare sugars described above in 2), respectively, followed by culturing for 48 hours.
After culturing for 48 hours, the attached human carcinoma cells were mechanically separated and collected in a Spitz tube together with the culture solution and floating cells. After the supernatant formed by centrifugation (4° C., 1200 rpm, and 5 minutes) was removed to obtain cell pellets alone, 5 ml of a phosphate buffer physiological saline (PBS) was added for the purpose of washing to obtain a cell suspension of the cell pellets. A gain, the resulting cell suspension was centrifuged at 4° C. and 1200 rpm for 5 minutes and the supernatant was removed. To the cell pellets after washing was added 1 ml of pure water to suspend them therein. Ultrasonic disruption (intensity: 40%, 30 seconds) was then performed and the monosaccharide in the disrupted cell suspension was labeled with ABEE, followed by analysis by HPLC. From the area thus obtained, the sugar content in the cells was determined using a calibration curve. With respect to the ketose, two peaks were found after labeling with ABEE so that the sugar content in the cells was determined from the calibration curves of both peaks.

ACHN tumor = test: D-allose concentration in tumor after intraperitoneal injection, ACHN xenograft mouse model; assay type: in vivo; conditions: ACHN xenograft mice, 400 mg/kg intraperitoneal
Method: (§1) The experiment of the present example used two human renal cell carcinoma cell lines (Caki-I and ACHN). Each cell was cultured under the wet environment of 37° C. and 5% CO2 by using a RPMI-1640 culture solution (2000 mg D-glucose/L) containing a 10% fetal calf serum, a HEPES buffer, and penicillin-streptomycin.
(§2) With respect to a renal cell carcinoma xenograft mouse model, a 1.0×10^5 cells/ml of a cell suspension was obtained by adjusting the cultured cells with a MEM culture solution and then 0.1 ml of the resulting suspension was injected into the femoral subcutaneous tissue of Female athymic nude mice (BALB/c-nu/nu, 6-week-old). After checking that the tumor volume was 200 mm^3 or more one week after the injection, the mice were provided for the experiment thereafter.
A 400 mg/kg/0.4 mL solution of rare sugar D-allose was prepared using physiological saline and was intraperitoneally injected into the xenograft mouse models of two human renal cell carcinoma cell lines (Caki-I and ACHN) through a 27 G needle. A tumor was enucleated from the mouse before […] administration and 1 hour, 2 hours, and 4 hours after the administration. […] A monosaccharide in the supernatant thus obtained was labeled with ABEE (4-aminobenzoic acid ethyl ester) and the quantitative analysis of D-allose was performed by HPLC (high performance liquid chromatography). […]

Caki-I tumor tissue = test: Tumor tissue histology (necrosis area, nuclear fission), Caki-I xenograft mouse model; assay type: in vivo, mice; conditions: day 35
Method: as §1, §2
(§3) The day when the tumor size of the renal cell carcinoma xenograft mouse models became 200 mm^3 or more was called day 0 and the intraperitoneal injection of a D-allose-containing solution was started from day 1. The solution injected is 0.4 mL of physiological saline or a solution obtained by dissolving 100 mg/kg or 400 mg/kg of D-allose in 0.4 mL physiological saline. The resulting solution was intraperitoneally injected into three groups of mice (Control, 100 mg/kg of D-allose, and 400 mg/kg of D-allose) once a day for 5 weeks in total. The body weight of the mice and the long and short diameters of the tumor were measured over time twice a week. It is to be noted that the tumor volume was obtained as a product of long diameter×short diameter×short diameter of the tumor×0.5. On day 35 after the intraperitoneal injection was started, the tumor as well as the liver and kidney were excised from the mice and provided for the experiment performed thereafter.
The tissue of the excised tumor, kidney, and liver was fixed with a 4% paraformaldehyde phosphate buffer, embedded with paraffin, and sliced into a 4-μm thick section. The resulting sliced section was stained with hematoxylin and eosin and evaluated by a medical specialist in pathology. The influence of D-allose on the tumor tissue was evaluated by a necrosis area (%) and an image of the number of nuclear fissions (Cells/HPF). It is to be noted that the necrosis area was measured using an image recording software Nikon NIS—Elements D and figures after the decimal point were omitted. On the other hand, the number of nuclear fissions was obtained as an average of those of three fields of view and figures after the decimal point were also omitted. The anti-tumor effect of D-allose, more specifically, necrosis area and the number of nuclear fissions in the renal cell carcinoma xenograft mouse model are shown in Table 10.

kidney tissue = test: Kidney tissue histology in renal cell carcinoma xenograft mouse models; assay type: in vivo; conditions: xenograft mice, intraperitoneal once a day, day 35; diagnosis by a medical specialist in pathology; FIG. 7
Method: as §3, with “On day 35 after the intraperitoneal injection was started, the tumor as well as the liver and kidney were excised from the mice and provided for the experiment performed thereafter.” left out
The tissue of the excised tumor, kidney, and liver was fixed with a 4% paraformaldehyde phosphate buffer, embedded with paraffin, and sliced into a 4-μm thick section. The resulting sliced section was stained with hematoxylin and eosin and evaluated by a medical specialist in pathology. The influence of D-allose on the tumor tissue was evaluated by a necrosis area (%) and an image of the number of nuclear fissions (Cells/HPF). It is to be noted that the necrosis area was measured using an image recording software Nikon NIS—Elements D and figures after the decimal point were omitted. […]

[2] = 100 mg/kg intraperitoneal once a day
[3] = 400 mg/kg intraperitoneal once a day

`O=C[C@H](O)[C@H](O)[C@H](O)[C@H](O)CO` [D-allose] was tested, and the “D-glucose content in cell” value ([1]; Caki-I, named sugar added to RPMI-1640 at 10 mM, 48 hours, HPLC after ABEE labeling) was 2.1 µg, the “Content in cell of the added sugar” value ([1]; human, 48 h, 10 mM) was 13.2 µg and the “D-allose in tumor one hour after intraperitoneal injection” value (ACHN tumor; HPLC, FIG. 4) was “detected”. The “Time after injection at which D-allose concentration in tumor became the highest” value (ACHN tumor; sampled 1, 2, 4 hours) was “two”, the Necrosis area (Caki-I tumor tissue; [2]) was 22% and the Nuclear fission (Caki-I tumor tissue; [2]) was 0.9 Cells/HPF. For the same molecule, the Necrosis area (Caki-I tumor tissue; [3]) was 33%, the Nuclear fission (Caki-I tumor tissue; [3]) was 1 Cells/HPF and the “Influence on the kidney tissue” value (kidney tissue) was “No influence”.
